“Also recorded” adds a separate entry of the source. Residues, ends and D or L forms follow the SMILES beside them. *: point of attachment. Cbz = O=C(OCc1ccccc1)*
Experiments:
[1] = test system: oncogenic SmoM2 protein; experiment: Initial testing of compounds: SmoM2 protein stability in cultured mouse NIH3T3 cells; assay type: cell-based
Source text: The four ER stress/UPR modulating compounds listed below (abbreviated and commercial names in parentheses) destabilize oncogenic SmoM2 protein in cultured mouse NIH3T3 cells. • 1. 17-N-Allylamino-17-demethoxygeldanamycin (17-AAG, KOS-953,Tanespimycin), • 2. 17-Dimethylaminoethylamino-17-demethoxygeldanamycin (17-DMAG, KOS-1022, Alvespimycin), • 3. 4-(6,6-dimethyl-4-oxo-3-(trifluoromethyl)-4,5,6,7-tetrahydroindazol-1-yl)-2-((1r,4r)-4-hydroxycyclohexylamino)benzamide (SNX-2112) • 4. Eeyarestatin I (EerI).

[2] = test system: unfolded protein response (UPR) in myeloma cells; settings: cited from earlier work
[3] = test system: wild type, C318A and M2 mSmo proteins; experiment: Temperature sensitivity analysis at 40° C. with the proteasome inhibitor MG132, western blot, NIH3T3 cells; assay type: cell-based, mouse
Protocol: Given that the bulk of mSmoC318A and mSmoM2 are ER-localized, it was reasoned that, like the active Drosophila mutants, they would be affected by induction of a thermal ER stress response. Thermal ER stress has been observed in mammalian cells cultured at 40° C. (Xu et al., 2011 [53]). Accordingly, it was observed induction of the ER stress response transcription factor CHOP in NIH3T3 cells incubated at this high temperature for 2-4 hours (FIG. 5C). To assess the effect of thermal ER stress on mSmo proteins, wild type, C318A or mSmoM2 was expressed in NIH3T3 cells cultured at 37° C., then shifted to 40° C. for 4 hours prior to whole-cell lysis (FIG. 5C′). […] (FIG. 5C′ lanes 3-6 compared to 1-2). This destabilization is the likely result of ER-associated protein degradation (ERAD), as the ER-resident forms of all three Smo variants were stabilized at 40° C. by the proteasome inhibitor MG132 (FIG. 5C′ white arrowhead, lanes 8, 10 and 12 compared to 7, 9 and 11). The post-ER form of wild type Smo was not altered by MG132 treatment (FIG. 5C′ black arrowhead, lanes 7-8).
For protein stability analysis in mammalian cells, ˜1×10^6NIH3T3 cells were transfected with 2 ug of wild type or mutant pcDNA3.1-amino expression vector (Carroll et al., 2012 [31]). For temperature sensitivity analysis, transfected cells were maintained at 37° C. for ˜44 hours, and then shifted to 40° C. for 4 hours prior to lysis. Whole-cell lysates were prepared in modified RIPA buffer (50 mM Tris-HCl, pH 7.4, 150 mM NaCl, 0.25% deoxycholic acid, 1% NP-40, 1 mM EDTA, 0.1% SDS, 0.5 mM DTT, and 1× PIC (Roche)) by rocking for 30 minutes at 4° C. as described (Nachtergaele et al., 2012 [62]). Cell extracts were cleared by centrifuging at 16,000×g at 4° C. for 45 minutes. Supernatants were collected and analyzed by SDS-Page and western blot using anti-GADD153/CHOP (B-3, SCBT) anti-Smo (E5, SCBT) and anti-tubulin (Cell Signaling) antibodies. […] Whole-cell lysates were prepared in modified RIPA buffer and analyzed as above.

[4] = cited from earlier work

## CO[C@H]1/C=C\C=C(/C)C(=O)NC2=CC(=O)C(NCCN(C)C)=C(C[C@@H](C)C[C@H](OC)[C@H](O)[C@@H](C)/C=C(\C)[C@@H]1OC(N)=O)C2=O [17-DMAG, 17-Dimethylaminoethylamino-17-demethoxygeldanamycin]
[1]
  effect on oncogenic SmoM2 protein: destabilize

## CC1(C)C(N(O)C(=O)Nc2ccc(Cl)cc2)N(c2ccc(Cl)cc2)C(=O)N1CC(=O)NN=CC=Cc1ccc([N+](=O)[O-])o1 (stereo not shown) [Eeyarestatin I, 3-(4-Chlorophenyl)-4-[[[(4-chlorophenyl)amino]carbonyl]hydroxyamino]-5,5-dimethyl-2-oxo-1-imidazolidineacetic acid 2-[3-(5-nitro-2-furanyl)-2-propen-1-ylidene]hydrazide]
[1]
  effect on oncogenic SmoM2 protein: destabilize

## C=CCNC1=C2C[C@@H](C)C[C@H](OC)[C@H](O)[C@@H](C)/C=C(\C)[C@H](OC(N)=O)[C@@H](OC)/C=C\C=C(/C)C(=O)NC(=CC1=O)C2=O [17-AAG, 17-N-Allylamino-17-demethoxygeldanamycin]
[1]
  effect on oncogenic SmoM2 protein: destabilize
[2]
  activation of the branches of the UPR: capable of activating all three branches of the UPR

## CC1(C)CC(=O)c2c(C(F)(F)F)nn(-c3ccc(C(N)=O)c(N[C@H]4CC[C@H](O)CC4)c3)c2C1 [SNX-2112, 4-(6,6-dimethyl-4-oxo-3-(trifluoromethyl)-4,5,6,7-tetrahydroindazol-1-yl)-2-((1r,4r)-4-hydroxycyclohexylamino)benzamide]
[1]
  effect on oncogenic SmoM2 protein: destabilize

## C[C@@H]1C[C@H]2O[C@@H]2/C=C\C=C\C(=O)Cc2c(Cl)c(O)cc(O)c2C(=O)O1 [radicicol]
[2]
  activation of the branches of the UPR: capable of activating all three branches of the UPR

## CC(C)C[C@@H](C=O)NC(=O)[C@H](CC(C)C)NC(=O)[C@H](CC(C)C)NC(=O)OCc1ccccc1 [MG132] (Cbz-Leu-Leu-Leu-aldehyde)
[3]; NIH3T3 cells shifted to 40° C. for 4 hours, MG132 treatment
  ER-resident forms of all three Smo variants (wild type, C318A, M2): protein stability: stabilized
[3]; NIH3T3 cells shifted to 40° C., MG132 treatment
  post-ER form of wild type Smo: unaffected; also recorded: not altered
[3]; NIH3T3 cells shifted to 40° C., MG132 treatment (FIG. 5C' legend)
  destabilization of the ER-resident forms of wild type and both mutants at 40° C.: attenuated

## C/C=C(/C)C(=O)O[C@H]1C(C)=C2[C@H]([C@@H]1OC(=O)CCCCCCC)[C@@](C)(OC(C)=O)C[C@H](OC(=O)CCCCCCCCCCCNC(=O)C[C@H](N)C(=O)N[C@@H](CCC(=O)N[C@@H](CCC(=O)N[C@@H](CCC(=O)N[C@@H](CCC(=O)O)C(=O)O)C(=O)O)C(=O)O)C(=O)O)[C@@]1(O)[C@H]2OC(=O)[C@@]1(C)O [G-202]
[4]
  in vivo toxicity relative to thapsigargin: significantly reduced

From patent US20150320723A1, “Use of Small Molecule Unfolder Protein Response Modulators to Treat Tumors With Active Sonic Hedgehog (SSH) Signaling Due To Smoothened (SMO) Mutation” (ST. JUDE CHILDREN'S RESEARCH HOSPITAL, priority 2013, published 2015)
